# Results: Sander's compilation of Henry's law constants (doi:10.1021/je00026a010)
# Test: Henry solubility constant Hcp at 298.15 K (mol/(m3 Pa))
# Conditions: reference: Leighton and Calo (1981)
compound,measurement,value
"CC(Cl)(Cl)Cl [1,1,1-trichloroethane]",Henry solubility constant Hcp,0.00049
"ClC(Cl)C(Cl)Cl [1,1,2,2-tetrachloroethane]",Henry solubility constant Hcp,0.027
"ClCC(Cl)Cl [1,1,2-trichloroethane]",Henry solubility constant Hcp,0.012
"C=C(Cl)Cl [1,1-dichloroethene]",Henry solubility constant Hcp,0.00026
"ClCC(Cl)CCl [1,2,3-trichloropropane]",Henry solubility constant Hcp,0.029
"CC(Cl)CCl (stereo not given) [1,2-dichloropropane]",Henry solubility constant Hcp,0.0034
"ClCCCCl [1,3-dichloropropane]",Henry solubility constant Hcp,0.01
"ClCCCCCl [1,4-dichlorobutane]",Henry solubility constant Hcp,0.02
"ClCCCCCCl [1,5-dichloropentane]",Henry solubility constant Hcp,0.018
CCCCCl [1-chlorobutane],Henry solubility constant Hcp,0.00059
CCCCCCCl [1-chlorohexane],Henry solubility constant Hcp,0.00041
CCCCCCl [1-chloropentane],Henry solubility constant Hcp,0.00041
CCC(C)Cl (stereo not given) [2-chlorobutane],Henry solubility constant Hcp,0.00041
c1ccccc1 [benzene],Henry solubility constant Hcp,0.0018
Clc1ccccc1 [chlorobenzene],Henry solubility constant Hcp,0.003
ClCCl [dichloromethane],Henry solubility constant Hcp,0.003
Cc1ccccc1 [methylbenzene],Henry solubility constant Hcp,0.0015
ClC(Cl)=C(Cl)Cl [tetrachloroethene],Henry solubility constant Hcp,0.00061
ClC(Cl)(Cl)Cl [tetrachloromethane],Henry solubility constant Hcp,0.00036
ClC=C(Cl)Cl [trichloroethene],Henry solubility constant Hcp,0.001
